“Also recorded” adds a separate entry of the source.
What was measured:
Type in all cases: cell-based, human
[1] = system: CD34+ hematopoietic stem and progenitor cells (HSPCs); experiment: Flow cytometry assay of percentage of HbF expressing cells (F-cells) after in vitro erythroid differentiation
Procedure: (§1) Briefly, mobilized peripheral blood (mPB), or bone marrow (BM) derived CD34+ hematopoietic stem and progenitor cells (HSPCs) were thawed and cultured in Hematopoietic stem cell expansion media (Table 7) from Day −4 to Day 0 following by 3-stage in vitro erythroid differentiation (Table 8). Specifically, cells were cultured in erythroid expansion media (phase 1) from Day 0-6, followed by differentiation media (phase 2) between Day 7-10, and culminating with incubation in erythroid maturation media (phase 3) from Day 10-18. Perturbagens reconstituted in DMSO (or appropriate solvent) were added starting at day −2 (corresponding to a stage of CD34+ hematopoietic progenitors). […] As part of the analysis, the expansion (fold growth), viability, and erythroid maturation was measured throughout the course of differentiation. Early erythroid induction was determined by flow cytometry using a six-antibody panel (CD34, CD38, CD36, CD71, CD41, CD235a) (Table 9). Similarly, late erythroid maturation was determined by flow cytometry using a four-antibody panel (Table 10) (CD71, CD235a, CD233, CD49d) tracking increased CD233 expression, with a concomitant loss of CD49d expression, and a shift in CD71^Hi to CD71^low erythroid population (CD235a+) over 18 days (FIG. 2). […]

[2] = system: CD34+ hematopoietic stem and progenitor cells (HSPCs); experiment: Percentage HbF by HPLC / ion-exchange chromatography in in vitro derived erythrocytes; settings: Day 14; HU 50 μM, Perturbagen 1081 0.1 μM; n=4-5
Procedure: as §1

[3] = system: mPB CD34+ cells; experiment: scRNA-seq of CD34+ cells treated with HbF inducers (trajectories, gene signatures); settings: for Pseudo-trajectory associated with high levels of HBG1/HBG2 expression: Leiden clustering / gene module analysis of HbF inducers
Procedure: To understand the mechanism/cell behavior driving fetal hemoglobin induction, a number of known HbF inducers were evaluated and their signature was elucidated by scRNA-seq. In brief, mPB CD34+ cells were thawed, cultured and treated with selected HbF inducers (Table 11) as described in Example 2 and subjected to single cell gene expression profiling (GEP) at 5 time points capturing the induction of erythroid differentiation from a hematopoietic stem cell progenitor. For sequencing, 10,000 cells (1000 cells/perturbation) were loaded into a single channel of a Chromium Next GEM Chip G and partitioned into droplets with gel beads using a Chromium controller per time point. After emulsion droplets were formed and collected, reverse transcription reactions were incubated at 53° C. for 45 min.
A dimensionality-reduced representation of the count matrix was embedded using UMAP, clustered using Leiden clustering and annotated using differential expression testing (Wilcoxon test) and comparisons to established marker genes. […] Based on these two trajectories, distinct signatures were generated for each transition and a list predictions were made towards each cell state.
Based on the unique/novel cell state (CD34+/CD41^Low+/CD235a+) induced by HU treatment of human hematopoietic stem cell progenitors Applicant postulated that this cell state was reminiscent/analogous to a stress erythropoiesis cell state previously defined in mice but not well characterized in human. […] To evaluate whether HU was inducing a stress erythropoiesis cells state and whether this cell state was responsive to glucocorticoids, the effect of dexamethasone (Dex) was evaluated in the context of HU treatment.
Perturbagen 1081 induced predicted gene signature associated with fetal hemoglobin induction. […] Adult human CD34+ progenitors were treated with Perturbagen 1081 and other known HbF inducers and subjected to scRNA-seq. […] Analysis of Perturbagen 1081 induced gene signature validated the fetal erythropoiesis signature predicted using a computational predictive models (FIG. 16C).

[4] = system: CD34+ HSPCs; experiment: Flow cytometry of the CD34+/CD41Low+/CD235a+ cell state; settings: HU 50 uM, day 3 mPB CD34+
Procedure: Therefore, in this example, CD34+ HSPCs are cultured 4 days in stem cell maintenance media (days −4 through 0) then switched to the three phases of erythroid differentiation media. Phase 1, erythroid expansion media (days 0 through 6), Phase 2 erythroid differentiation media (days 7 through 10) and Phase 3 erythroid maturation media (days 10 through 18).

Row | Compound | Number of F-cells with HU treatment ([1]; HU 50 uM on CD34+ HSPCs before erythroid differentiation) | HbF induced, HPLC analysis of in vitro derived erythrocytes [2] | Pseudo-trajectory associated with high levels of HBG1/HBG2 expression [3] | Expression of the glucocorticoid receptor (NR3C1) ([3]; scRNA-seq of HU and HU+Dex conditions) | CD34+/CD41Low+/CD235a+ cell state [4] | F-cell data, glucocorticoid agonist combined with HU (absolute change, fold change) ([1]; combination with HU)
1 | NC(=O)NO [HU, hydroxyurea] | increased number of F-cells | 17.16%+4.78 | HU-HbF trajectory | increases the expression of the glucocorticoid receptor (NR3C1); also recorded: induction of NR3C1 | a novel cell state defined by CD34+/CD41^Low+/CD235a+(FIG. 6A) was observed; also recorded: emergence of a cell population defined by CD34+CD41lowCD235a+ expression | –
2 | Cc1ccc2c(NC[C@](O)(CC(C)(C)c3cc(F)cc4c3OCC4)C(F)(F)F)cccc2n1 [Mapracorat] | – | – | – | – | – | synergy with HU
3 | Nc1cccc2c1C(=O)N(C1CCC(=O)NC1=O)C2=O (stereo not shown) [Pomalidomine] | – | – | canonical-HbF trajectory | – | – | –

Source: patent US20230144855A1, “METHODS AND COMPOSITIONS FOR INDUCING FETAL HEMOGLOBIN” (Flagship Pioneering Innovations VI, LLC, priority 2021, published 2023)
